Patent US5786385A, “Polyacetylenes” (priority 1993, dated 1998)
Where two headings read alike, the source gives them in different places.

How the values were obtained:
[1] = Solubility / lipophilicity; format: physicochemical
[2] = test system: pentobarbitone sodium induced sleep; test: Pentobarbitone sodium induced sleep in rats (sleeping time), analeptic action; format: in vivo, rat; conditions: for ED50: after intraperitoneal 40 mg/kg pentobarbitone sodium, read-out: dose reducing "sleeping time" by 50%
Experimental: The effects of cunaniol on pentobarbitone sodium induced sleep in rats were compared with those of the analeptic bemegride. 5 mg/kg of cunaniol administered by intraperitoneal injection antagonises pentobarbitone while 7.4 mg/kg reduces "sleeping time" by 50% after intraperitoneal administration of a concentration of 40 mg/kg pentobarbitone sodium.

[3] = Potency of cis-cunaniol relative to the trans form; conditions: cis form versus trans form; only about 1/60th
[4] = for stability to air and light: exposure to light and air / oxygen
[5] = Craig Distribution studies (Kp value); format: physicochemical; conditions: obtained previously from Craig Distribution studies
Experimental: Crude syrup (190 g.) from the cold petrol extraction was dissolved in upper phase solvent (150 mls.). A steady state distribution program was used, based on a Kp value for cunaniol acetate of 0.54 obtained previously from Craig Distribution studies. The mixture was then loaded into the SSDM dosage pump.

rat heart = test: Rat heart contractability and heart block
[6] = test system: isolated rat phrenic nerve-diaphragm preparation; test: Isolated rat phrenic nerve-diaphragm preparation
Text: This is not reversed by neostigmine, i.e. is not curare-like.

viviparous fish = test: Release of fry from viviparous fish; format: in vivo; conditions: due to effects on neuromuscular function
cardiovascular system = test: Action on the cardiovascular system; conditions: in vivo
[7] = test system: frog spinal cord preparation; test: Frog spinal cord preparation
Text: (§1) Cunaniol is about ten times as active and ten times as rapid as the classic central nervous system stimulant picrotoxin. Convulsant action can be antagonised by prior exposure to anticonvulsants such as phenobarbitone or troxidone.

[8] = test system: frog and rat isolated striated muscle preparations; test: Frog and rat isolated striated muscle preparations, nerve stimulation
Text: Experiments have been carried out on frog and rat isolated striated muscle preparations.

GABAergic system = test: GABA (gamma-amino-butyric acid) antagonism
guppies = test: Toxicity test on guppies; format: in vivo, guppy
Text: Cunaniol or its derivatives may also be used as an effective toxin. When tested on guppies at approximately 10^-6 M the poison gives rise to restless movement after two minutes, wild swimming, convulsion and coma with the body bent laterally after ten minutes.

central nervous system = test: Central nervous system stimulant / convulsant activity compared with picrotoxin; antagonism by anticonvulsants; format: in vivo; conditions: for antagonism of cunaniol convulsant action: prior exposure to anticonvulsant
Text: as §1

Rats = test: Convulsant action and lethality in rats, intraperitoneal injection; format: in vivo, rat
Experimental: (§2) Rats are also sensitive to the convulsant actions of cunaniol, a convulsant dose being 5 mg/kg. A dosage of 2.24 mg/kg is a non-convulsant dose while 10 mg/kg causes death (intraperitoneal injection).

[9] = as above; format: in vivo, rat; conditions: rat, in vivo, ip, read-out: non-convulsant dose
Experimental: as §2

isolated rabbit heart = test: Isolated rabbit heart perfusion
pithed rats = test: Pressor response in pithed rats; format: in vivo, rat; conditions: indicating a central action
Experimental: (§3) In intact anaesthetised rats, a sustained pressor response is produced by cunaniol administered by intravenous injection in doses of 0.5 mg or greater. In pithed rats the response to cunaniol was abolished, indicating a central action of the polyacetylene.

frogs = test: Administration to frogs by injection or by topical application: convulsions and death; format: in vivo, frog
Text: as §1

mice = test: Convulsant action in mice, intraperitoneal or oral; format: in vivo, mouse; conditions: for convulsant type in mice: intraperitoneally or orally; for similarity of convulsant actions to cunaniol: mice
[10] = test system: intact anaesthetised rats; test: Pressor response in intact anaesthetised rats; format: in vivo, rat; conditions: intravenous injection
Experimental: as §3

CC#CC#CC#C/C=C/C1OCCCC1O (stereo not shown)
solubility in water ([1]; water): low solubility in water

CCC1(C)CC(=O)NC(=O)C1 [bemegride, reference compound]
ED50 ([2]; Rattus norvegicus, ip, rats): 45.7 mg/kg

CC#CC#CC#C/C=C\C1OCCCC1O (stereo not drawn) [cis-cunaniol]
potency relative to trans form [3]: about 1/60

CC#CC#CC#CC=CC1OCCCC1OC(C)=O (stereo not shown) [cunaniol acetate]
hydrolysis ([4]; with sodium bicarbonate): easily hydrolysed
Kp value [5]: 0.54

CC#CC#CC#CC=CC1OCCCC1O (stereo not shown) [cunaniol]
effect on rat heart, larger doses (rat heart; larger doses): complete heart block
reversibility of heart block (rat heart; on washing out, no apparent impairment of function): rapidly reversed on washing out
effect on rat heart, small doses (rat heart; small doses): reduce contractability of the rat heart
minimal effective concentration ([6]; Rattus norvegicus, direct action on the muscle, dose dependent, concentrations as low as, read-out: lowest concentration giving marked potentiation): 12.5 µg/mL
concentration giving complete neuromuscular block ([6]; higher concentrations): 100 µg/mL
reversal of block by washing ([6]; washing): readily reversed by washing
time for removal of potentiation by washing ([6]; washing, more slowly removed than block): 60 min
release of fry from viviparous fish (viviparous fish): highly effective
stability to air and light [4]: readily decomposed to a brown material
stability to air and light ([4]; listed as trans-cunaniol): unstable to oxygen and light
storage stability ([4]; solid under n-hexane, in the dark, in a refrigerator): could be kept for years
effect on the cardiovascular system (cardiovascular system): transient depressant effect on the heart and a sustained pressor response
effects on frog spinal cord preparation [7]: resemble those of nicotine
response to nerve stimulation [8]: increased response to nerve stimulation
neuromuscular transmission at higher concentrations ([8]; higher concentrations): failure in neuromuscular transmission
GABA antagonist activity (GABAergic system): GABA (gamma-amino-butyric acid) antagonist
minimal effective dose ([2]; Rattus norvegicus, ip, rats, intraperitoneal injection, read-out: dose antagonising pentobarbitone): 5 mg/kg
ED50 ([2]; Rattus norvegicus, ip, rats): 7.4 mg/kg
selectivity as analeptic ([2]; compared with bemegride and leptazol): more selective anti-phenobarbitone action
analeptic potency compared with bemegride ([2]; rats, 50% reduction of "sleeping time"): more potent than bemegride
edibility of treated fish (guppies; almost immediately after treatment): edible almost immediately
subsequent symptoms after recovery (guppies; guppies removed into fresh water): no subsequent symptoms
time to complete recovery (guppies; guppies removed into fresh water after ten minutes at approximately 10^-6 M): approximately twenty
time to restless movement (guppies; guppies, approximately 10^-6 M): two
time to wild swimming, convulsion and coma with the body bent laterally (guppies; guppies, approximately 10^-6 M): ten
rapidity relative to picrotoxin (central nervous system; ten times as rapid as picrotoxin): about ten
convulsant dose (Rats): 5 mg/kg
dose causing death (Rats): 10 mg/kg
NOAEL [9]: 2.24 mg/kg
effect on isolated rabbit heart (isolated rabbit heart; perfusion, 100 μg/ml, preliminary experiments): negative inotropic effect culminating in complete but reversible cardiac arrest in diastole
pressor response in pithed rats (pithed rats): abolished
effect in frogs (frogs; by injection or by topical application): clonic convulsions and death
LD50 (frogs; frogs, intraperitoneal injection): 12.8 mg/kg
lipophilicity ([1]; due to the polyacetylene chain): lipophilic
potency among the clonic convulsants (mice; both routes of administration, compared with leptazol, picrotoxin): most potent of the clonic convulsants
speed of onset of effects (mice; compared with the other compounds): usually occurred more rapidly than with the other compounds
convulsant type in mice (mice): clonic convulsant
dose producing a sustained pressor response [10]: ≥ 0.5 mg

CC#CC#CC#C/C=C/C1OCCCC1OC1C=C[C@H](OC(C)=O)[C@@H](COC(C)=O)O1 (stereo partly shown) [glycoside]
liberation of cunaniol on hydrolysis ([4]; hydrolysis of the glycoside link): readily liberated on hydrolysis

C1CCc2nnnn2CC1 [leptazol]
similarity of convulsant actions to cunaniol (mice): mimicked closely

CN(C)C(=O)Oc1cccc([N+](C)(C)C)c1 [neostigmine, reference compound]
reversal of neuromuscular block by neostigmine ([6]; block by cunaniol, i.e. not curare-like): not reversed

CCC1(c2ccccc2)C(=O)NC(=O)NC1=O [phenobarbitone, reference compound]
antagonism of responses of guppies to cunaniol (guppies; in vivo): readily antagonises all responses
antagonism of cunaniol convulsant action (central nervous system): antagonised

C=C(C)[C@H]1Cc2c(ccc3c2O[C@@H]2COc4cc(OC)c(OC)cc4[C@@H]2C3=O)O1 [rotenone]
reversibility in isolated rabbit heart (isolated rabbit heart; similar experiment with rotenone): did not exhibit the reversibility
toxicity to mice (mice; metabolic toxin, comparison): highly toxic to mice
similarity of convulsant actions to cunaniol (mice): qualitatively different from the convulsants

O=C1C[C@@H]2OCC=C3CN4CC[C@]56c7ccccc7N1[C@H]5[C@H]2[C@H]3C[C@H]46 [strychnine]
convulsant type in mice (mice): tonic convulsions
similarity of convulsant actions to cunaniol (mice): differed

CN1C(=O)OC(C)(C)C1=O [troxidone, reference compound]
antagonism of cunaniol convulsant action (central nervous system): antagonised

picrotoxin
similarity of convulsant actions to cunaniol (mice): less closely
